Experimental data as given in PubChem BioAssay AID248 (DTP/NCI, 2004).
“And” between values parts separate entries of the source, which are not always exact repeats. Equal entries are not always repeated. Inconclusive results and toxic doses are left out.

System: L1210 leukemia ip in BDF1 mice, survival T/C
Test: NCI In Vivo Anticancer Drug Screen. Data for tumor model L1210 Leukemia (intraperitoneal) in B6D2F1 (BDF1) mice
Conditions: endpoint: mean survival time, higher = longer survival
In short: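 Survival endpoint. Drug-treated group vs vehicle group, expressed as T divided by C. Tumor passaged by transplantation.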

[1] = dose: 50.0 mg/kg/injection, schedule: Q01DX001 (ip), vehicle: saline
[2] = dose: 100.0 mg/kg/injection, schedule: Q01DX001 (ip), vehicle: saline
[3] = dose: 200.0 mg/kg/injection, schedule: Q01DX001 (ip), vehicle: saline
[4] = dose: 400.0 mg/kg/injection, schedule: Q01DX001 (ip), vehicle: saline
[5] = dose: 100.0 mg/kg/injection, schedule: Q04DX003 (ip), vehicle: Klucel (hydroxypropylcellulose) (HPC)
[6] = dose: 100.0 mg/kg/injection, schedule: Q04DX003 (ip), vehicle: saline with Tween-80
[7] = dose: 200.0 mg/kg/injection, schedule: Q04DX003 (ip), vehicle: saline with Tween-80
[8] = dose: 400.0 mg/kg/injection, schedule: Q04DX003 (ip), vehicle: saline with Tween-80
[9] = dose: 100.0 mg/kg/injection, schedule: Q04DX002 (ip), vehicle: Klucel (hydroxypropylcellulose) (HPC)
[10] = dose: 200.0 mg/kg/injection, schedule: Q04DX002 (ip), vehicle: Klucel (hydroxypropylcellulose) (HPC)

N#Cc1[nH]cnc1[N+]#N
T/C (dose: 3.0 mg/kg/injection, schedule: Q01DX009 (ip), vehicle: saline with Tween-80): 103 % of control
T/C (dose: 3.0 mg/kg/injection, schedule: Q04DX003 (ip), vehicle: other): 108 % of control
T/C (dose: 6.0 mg/kg/injection, schedule: Q01DX009 (ip), vehicle: saline with Tween-80): 105 % of control
T/C (dose: 6.0 mg/kg/injection, schedule: Q04DX003 (ip), vehicle: other): 103 % of control
T/C (dose: 12.0 mg/kg/injection, schedule: Q01DX009 (ip), vehicle: saline with Tween-80): 91 % of control
T/C (dose: 12.0 mg/kg/injection, schedule: Q04DX003 (ip), vehicle: other): 108 % of control
T/C (dose: 12.5 mg/kg/injection, schedule: Q01DX001 (ip), vehicle: other): 94 % of control

CCc1cc(C(=O)NC(CCC(=O)O)C(=O)O)ccc1NCc1cnc2nc(N)[nH]c(=O)c2n1 (stereo not drawn)
T/C (dose: 50.0 mg/kg/injection, schedule: Q01DX001 (ip), vehicle: saline with Tween-80): 106 % of control
T/C (dose: 100.0 mg/kg/injection, schedule: Q01DX001 (ip), vehicle: saline with Tween-80): 100 % of control
T/C (dose: 200.0 mg/kg/injection, schedule: Q01DX001 (ip), vehicle: saline with Tween-80): 100 % of control

CCOP(=O)(OCC)OCc1cnc(SC)nc1N
T/C [1]: 99 % of control
T/C [2]: 108 % of control

CN(CCN1CCCCC1)C(=O)C(O)(c1ccccc1)C1CCCCC1 (stereo not drawn)
T/C (dose: 75.0 mg/kg/injection, schedule: Q01DX001 (ip), vehicle: saline): 96 % of control
T/C (dose: 150.0 mg/kg/injection, schedule: Q01DX001 (ip), vehicle: saline): 97 % of control

O=C(C1CC1)C1OC1c1ccccc1 (stereo not drawn)
T/C (dose: 100.0 mg/kg/injection, schedule: Q01DX001 (ip), vehicle: Klucel (hydroxypropylcellulose) (HPC)): 96 % of control
T/C (dose: 200.0 mg/kg/injection, schedule: Q01DX001 (ip), vehicle: Klucel (hydroxypropylcellulose) (HPC)): 100 % of control
T/C (dose: 400.0 mg/kg/injection, schedule: Q01DX001 (ip), vehicle: Klucel (hydroxypropylcellulose) (HPC)): 94 % of control

O=C(NC1CCCC2CCCCC21)OCCC1CCCCC1 (stereo not drawn)
T/C [2]: 95 % of control
T/C [3]: 103 % of control
T/C [4]: 95 % of control

CCOC(=O)c1ccc(N=CN(C)C)cc1
T/C [5]: 100 % of control
T/C (dose: 200.0 mg/kg/injection, schedule: Q04DX003 (ip), vehicle: Klucel (hydroxypropylcellulose) (HPC)): 95 % of control
T/C (dose: 400.0 mg/kg/injection, schedule: Q04DX003 (ip), vehicle: Klucel (hydroxypropylcellulose) (HPC)): 107 % of control

CCC(CC)OC(=O)c1cc([N+](=O)[O-])cc([N+](=O)[O-])c1
T/C [6]: 91 % of control
T/C [7]: 87 % of control
T/C [8]: 94 % of control

FC(F)c1nc2nc(Cl)c(Cl)nc2[nH]1
T/C (dose: 25.0 mg/kg/injection, schedule: Q01DX009 (ip), vehicle: saline with Tween-80): 100 % of control
T/C (dose: 25.0 mg/kg/injection, schedule: Q04DX003 (ip), vehicle: saline with Tween-80): 101 % of control
T/C (dose: 50.0 mg/kg/injection, schedule: Q01DX009 (ip), vehicle: saline with Tween-80): 105 % of control
T/C (dose: 50.0 mg/kg/injection, schedule: Q04DX003 (ip), vehicle: saline with Tween-80): 97 % of control
T/C [6]: 102 % of control and 106 % of control

CS(=O)(=O)OCCN(CCOS(C)(=O)=O)c1ccc(C=Nc2ccc3ccccc3c2)cc1
T/C (dose: 20.0 mg/kg/injection, schedule: Q04DX003 (ip), vehicle: Klucel (hydroxypropylcellulose) (HPC)): 110 % of control
T/C (dose: 40.0 mg/kg/injection, schedule: Q04DX003 (ip), vehicle: Klucel (hydroxypropylcellulose) (HPC)): 117 % of control
T/C (dose: 53.3 mg/kg/injection, schedule: Q04DX003 (ip), vehicle: Klucel (hydroxypropylcellulose) (HPC)): 152 % of control
T/C [5]: 120 % of control
T/C (dose: 120.0 mg/kg/injection, schedule: Q04DX003 (ip), vehicle: Klucel (hydroxypropylcellulose) (HPC)): 95 % of control and 100 % of control

Cc1ccc(N2CCN(CCCN3CCN(c4ccc(Cl)cc4)CC3)CC2)cc1
T/C (dose: 8.0 mg/kg/injection, schedule: Q01DX Z (ip), vehicle: carboxymethylcellulose (CMC)): 98 % of control
T/C (dose: 16.0 mg/kg/injection, schedule: Q01DX Z (ip), vehicle: carboxymethylcellulose (CMC)): 95 % of control
T/C [5]: 109 % of control

COc1ccc2c(=O)c(O)c(-c3ccc(OC)c(OC)c3)oc2c1
T/C [1]: 97 % of control
T/C [2]: 94 % of control
T/C [3]: 92 % of control
T/C [4]: 94 % of control

Cc1ccc(Cl)cc1NC(=O)c1ccccc1F
T/C [9]: 93 % of control
T/C [10]: 97 % of control
T/C (dose: 400.0 mg/kg/injection, schedule: Q04DX002 (ip), vehicle: Klucel (hydroxypropylcellulose) (HPC)): 101 % of control

CCCCCCCCN=[N+](C)[O-]
T/C [9]: 97 % of control
T/C [10]: 93 % of control

O=[N+]([O-])c1ccc(Cl)c(OCCBr)c1
T/C (dose: 100.0 mg/kg/injection, schedule: Q01DX009 (ip), vehicle: gum acacia): 95 % of control
T/C (dose: 200.0 mg/kg/injection, schedule: Q01DX009 (ip), vehicle: gum acacia): 94 % of control
T/C (dose: 400.0 mg/kg/injection, schedule: Q01DX009 (ip), vehicle: gum acacia): 89 % of control

Cc1ccc(S(=O)(=O)N/N=C/c2ccc(C)s2)cc1
T/C [6]: 95 % of control
T/C [7]: 91 % of control
T/C [8]: 87 % of control

NC(=O)N/C=N/N=C(N)N
T/C (dose: 15.0 mg/kg/injection, schedule: Q01DX Z (ip), vehicle: methylcellulose (MC)): 101 % of control
T/C (dose: 30.0 mg/kg/injection, schedule: Q01DX Z (ip), vehicle: methylcellulose (MC)): 107 % of control
T/C (dose: 60.0 mg/kg/injection, schedule: Q01DX Z (ip), vehicle: methylcellulose (MC)): 108 % of control
T/C (dose: 120.0 mg/kg/injection, schedule: Q01DX Z (ip), vehicle: methylcellulose (MC)): 108 % of control
T/C (dose: 240.0 mg/kg/injection, schedule: Q01DX Z (ip), vehicle: methylcellulose (MC)): 94 % of control
T/C (dose: 420.0 mg/kg/injection, schedule: Q01DX Z (ip), vehicle: methylcellulose (MC)): 94 % of control
T/C (dose: 600.0 mg/kg/injection, schedule: Q01DX Z (ip), vehicle: methylcellulose (MC)): 86 % of control

Cc1[nH]c(=O)[nH]c(=O)c1N(CCF)CCCl
T/C (dose: 5.0 mg/kg/injection, schedule: Q01DX009 (ip), vehicle: Klucel (hydroxypropylcellulose) (HPC)): 104 % of control and 107 % of control
T/C (dose: 5.0 mg/kg/injection, schedule: Q01DX009 (ip), vehicle: saline): 106 % of control
T/C (dose: 9.0 mg/kg/injection, schedule: Q01DX009 (ip), vehicle: Klucel (hydroxypropylcellulose) (HPC)): 108 % of control
T/C (dose: 10.0 mg/kg/injection, schedule: Q01DX009 (ip), vehicle: Klucel (hydroxypropylcellulose) (HPC)): 112 % of control
T/C (dose: 10.0 mg/kg/injection, schedule: Q01DX009 (ip), vehicle: saline): 112 % of control
T/C (dose: 14.0 mg/kg/injection, schedule: Q01DX009 (ip), vehicle: Klucel (hydroxypropylcellulose) (HPC)): 120 % of control
T/C (dose: 20.0 mg/kg/injection, schedule: Q01DX009 (ip), vehicle: Klucel (hydroxypropylcellulose) (HPC)): 110 % of control
T/C (dose: 20.0 mg/kg/injection, schedule: Q01DX009 (ip), vehicle: saline): 124 % of control
T/C (dose: 23.0 mg/kg/injection, schedule: Q01DX009 (ip), vehicle: Klucel (hydroxypropylcellulose) (HPC)): 123 % of control
T/C (dose: 23.0 mg/kg/injection, schedule: Q04DX003 (ip), vehicle: Klucel (hydroxypropylcellulose) (HPC)): 108 % of control
T/C (dose: 39.0 mg/kg/injection, schedule: Q01DX009 (ip), vehicle: Klucel (hydroxypropylcellulose) (HPC)): 94 % of control
T/C (dose: 39.0 mg/kg/injection, schedule: Q04DX003 (ip), vehicle: Klucel (hydroxypropylcellulose) (HPC)): 116 % of control
T/C (dose: 65.0 mg/kg/injection, schedule: Q01DX001 (ip), vehicle: Klucel (hydroxypropylcellulose) (HPC)): 104 % of control
T/C (dose: 108.0 mg/kg/injection, schedule: Q01DX001 (ip), vehicle: Klucel (hydroxypropylcellulose) (HPC)): 110 % of control
T/C (dose: 108.0 mg/kg/injection, schedule: Q04DX003 (ip), vehicle: Klucel (hydroxypropylcellulose) (HPC)): 96 % of control
T/C (dose: 180.0 mg/kg/injection, schedule: Q01DX001 (ip), vehicle: Klucel (hydroxypropylcellulose) (HPC)): 120 % of control
T/C (dose: 180.0 mg/kg/injection, schedule: Q04DX003 (ip), vehicle: Klucel (hydroxypropylcellulose) (HPC)): 96 % of control
